# Patent US7547440B2, “T-cell epitope peptides” (Meiji Dairies Corporation, priority 1996, dated 2009)
# Test system: T-cell line stimulated by Cha o 2 from patients with Japanese cypress pollinosis
# Assay: Growth response ([3H]thymidine uptake) of Cha o 2-stimulated T-cell lines to overlapping peptides
# Assay type: cell-based, human
# Details: Cha o 2 overlapping peptides, final concentration 1 μM; T-cell lines from 20 patients; FIG. 5, FIG. 8
# Source text: To obtain the T-cell epitope peptides of the present invention, overlapping peptides that cover the entire primary structures of Cha o 1 and Cha o 2 were synthesized; each peptide consists of the adequate number of amino acid residues (12 to 20 residues). The peptide of the present invention stimulates and/or suppresses the activity of T cells derived from patients with pollinosis caused by tree pollens in springtime. In other words, the peptide of the present invention can induce proliferation of T cells or responses of T cells such as secretion of lymphokines, and/or can induce T-cell anergy (non-responsiveness). T-cell epitope sites on the allergen molecules can be identified using T-cell growth as an index in accordance with the method described in JP-A-Hei 8-47392. In particular, T-cell lines or T-cell clones, which are specifically reactive with Cha o 1 and Cha o 2, are established for every patient from peripheral lymphocytes of a patient with Japanese cypress pollinosis. The T-cell lines or T-cell clones are cultured in the presence of each peptide of the overlapping peptides. The epitope sites are identified by measuring the proliferation of T cells in the presence of the peptide (e.g., uptake of [^3H]thymidine into the cells) and calculating a stimulation index. […] Based on the data obtained thus, a mean stimulation index for each peptide is calculated for each patient group. […]
substance,measurement,value
"2-14: overlapping peptide of Japanese cypress pollen allergen Cha o 2, 20 residues (ARWKNSKIWLQFAQLTDFNL)",T-cell stimulating activity (contains at least one T-cell epitope),possess a T-cell stimulating activity
